# Experimental data published in patent US20260091050A1, “ADVANTAGEOUS ANTI-HCV COMBINATION THERAPY” (Atea Pharmaceuticals, Inc., priority 2021, published 2026).
# Assays:
# [1] = target: human mitochondrial RNA-dependent RNA polymerase (POLRMT) (Homo sapiens, UniProt O00411); assay: Incorporation of nucleotide analog triphosphates by human mitochondrial RNA polymerase; format: biochemical
# Description: The incorporation of these analogs by human mitochondrial RNA-dependent RNA polymerase (POLRMT) were determined according to Arnold et al. (Sensitivity of Mitochondrial Transcription and Resistance of RNA Polymerase II Dependent Nuclear Transcription to Antiviral Ribonucleotides. PLoS Pathog., 2012, 8, e1003030).
# [2] = Storage stability of Compound 1 forms and amorphous salts at 25° C./60% RH for 14 days (HPLC, observation); details: for Stability on storage: 14 days (2 weeks) at 25° C./60% RH
# Description: This initial characterization was followed by storage at 25° C./60% relative humidity (RH) for 14 days with analysis by HPLC and XRPD after 7 and 14 days. FIG. 4A is the XRPD after 14 days at 25° C./60% (RH).
# The samples were then frozen with the solvent removed by lyophilization.
# The samples were then subjected to storage at 25° C./60% relative humidity (RH) for 14 days with analysis by HPLC and XRPD after 7 (FIG. 4B) and 14 days (FIG. 5A).
# [3] = Single ascending dose study of Compound 1-A in healthy volunteers (Part A); format: in vivo, human; details: healthy subjects, single dose of Compound 1-A 400 mg, median (range)
# Description: Compound 1-A was tested in a single ascending dose (SAD) study to measure its safety, tolerability, and pharmacokinetic in healthy subjects (Part A). Part A was a randomized, double-blind, placebo-controlled SAD study. Healthy subjects in Part A received a single dose of Compound 1-A or placebo in the fasting state. Subjects were confined to the clinic from Day −1 to Day 6.
# Dosing in each cohort was staggered such that 2 subjects (1 active:1 placebo) were evaluated for 48 hours after dosing before the remainder of the cohort was dosed. Each cohort received Compound 1-A in ascending order. Dosing of sequential cohorts occurred based on review of available safety data (through Day 5) and plasma pharmacokinetic data (through 24 h) of the prior cohort.
# As pharmacokinetic and safety data emerged from prior cohorts, doses evaluated in Cohorts 3a-4a were adjusted by increments no more than 100 mg.
# Healthy volunteers in the Part A portion of the study were male and female subjects between the ages of 18 and 65. Active and placebo recipients were pooled within each Part A cohort to preserve the study blind.
# [4] = Plasma profiles of Compound 1 and metabolite 1-7 after single oral doses of Compound 1-A, cynomolgus monkeys; format: in vivo; details: monkey
# GT1 HCV [5] = assay: Single ascending dose study of Compound 1-A in GT1-HCV infected patients (Part B); format: in vivo, human; details: GT1-HCV infected patients, Compound 1-A 300 mg (second 300 mg line), median (range)
# Description: Subjects in Part B received a single dose of Compound 1-A in the fasting state. Patients were confined to the clinic from Day −1 to Day 6.
# Part B was initiated after the safety (through Day 5) and plasma pharmacokinetic (through 24 h) data review from Cohort 3a in Part A. Available safety data (through Day 5) and pharmacokinetic data (through 24 h) was reviewed for the first cohort in Part B (Cohort 1b) before enrolling subsequent Part B cohorts. Subsequent Part B cohorts were only dosed following review of available safety and pharmacokinetic data from the respective doses in Part A as well as available safety (through Day 5) from the prior Part B cohorts.
# Patients infected with HCV were treatment-naïve, non-cirrhotic GT1-infected subjects with a viral load of ≥5 log10 IU/mL.
# Baseline was defined as the mean of Day −1 and Day 1 (pre-dose). […] The mean maximum HCV RNA reduction 24 hours post-dose following a single 300 mg dose was 1.7 log10 IU/mL and this compares to a −2 log 10 IU/mL reduction after 1 day of 400 mg of sofosbuvir monotherapy in GT1a HCV-infected subjects. The mean maximum HCV RNA reduction 24 hours post-dose following a single 100 mg dose was 0.8 log10 IU/mL. The mean 10 maximum HCV RNA reduction was 2.2 log10 IU/mL following a single 400 mg dose.
# [6] = Plasma profiles of Compound 1 and metabolite 1-7 after single oral dose of Compound 1-A, Sprague-Dawley rats; format: in vivo; details: rat, single oral dose of Compound 1-A 500 mg/kg (0.5% CMC, 0.5% Tween 80 in water)
# GT1 HCV [7] = assay: Multiple dose study, 7 days QD, non-cirrhotic GT1 HCV-infected patients (Part C); format: in vivo, human
# Description: (§1) Doses were administered as the Compound 1-A salt base. The free base Compound 1 equivalent is often given in parenthesis.
# (§2) Part C was a randomized, double-blind, placebo-controlled MAD study divided into three cohorts. […] The dose escalation only proceeded following satisfactory review of the data.
# (§3) HCV-infected patients were treatment-naïve with HCV RNA ≥5 log 10 IU/mL. HCV RNA was quantified using COBAS® AmpliPrep TaqMAN® v2.0 with LLQ of 15 IU/mL. Plasma drug levels were measured using LC-MS/MS. […] Mean ages of enrolled subjects were 44, 39, and 56 years in the non-cirrhotic GT1b 600 mg dose cohort, non-cirrhotic GT3 cohort, and the cirrhotic cohort, respectively.
# [8] = Three-part study (Parts C, D, E) of Compound 1-A: overall safety/tolerability and pharmacokinetics; format: in vivo, human; details: for AUC: human, plasma, oral, Part C
# Description: as §2
# HCV-infected patients were treatment-naïve with HCV RNA ≥5 log 10 IU/mL. […] Plasma drug levels were measured using LC-MS/MS.
# GT1, GT2, or GT3 HCV = assay: 600 mg QD for 7 days in Child-Pugh A cirrhotic patients with GT1, GT2 or GT3 HCV (Part E); format: in vivo, human
# Description: Doses were administered as the Compound 1-A salt base. The free base Compound 1 equivalent is often given in parenthesis. […]
# as §3
# GT3 HCV = assay: 600 mg QD for 7 days in non-cirrhotic GT3 HCV-infected patients (Part D); format: in vivo, human; details: 600 mg QD, Part D
# Description: as §1, §2, §3
# [9] = tested on: replicons containing the NS5B sequences from HCV patient plasma samples (GT1a, 1b, 2a, 2b, 3a-1, 3a-2, 4a and 4d); assay: Replicons containing NS5B sequences from HCV patient plasma samples (clinical isolates); format: cell-based; details: GT1, GT3, and GT4 clinical isolates, nucleoside equivalent
# HCV = details: cited from earlier work
# [10] = incorporation by human mitochondrial RNA polymerase
# [11] = single oral dose of Compound 1-A 30 mg/kg (powder in capsules)
# [12] = single oral dose of Compound 1-A 100 mg/kg (powder in capsules)
# [13] = single oral dose of Compound 1-A 300 mg/kg (powder in capsules)
# human mitochondrial RNA-dependent RNA polymerase (POLRMT), sequence (O00411 42-1230): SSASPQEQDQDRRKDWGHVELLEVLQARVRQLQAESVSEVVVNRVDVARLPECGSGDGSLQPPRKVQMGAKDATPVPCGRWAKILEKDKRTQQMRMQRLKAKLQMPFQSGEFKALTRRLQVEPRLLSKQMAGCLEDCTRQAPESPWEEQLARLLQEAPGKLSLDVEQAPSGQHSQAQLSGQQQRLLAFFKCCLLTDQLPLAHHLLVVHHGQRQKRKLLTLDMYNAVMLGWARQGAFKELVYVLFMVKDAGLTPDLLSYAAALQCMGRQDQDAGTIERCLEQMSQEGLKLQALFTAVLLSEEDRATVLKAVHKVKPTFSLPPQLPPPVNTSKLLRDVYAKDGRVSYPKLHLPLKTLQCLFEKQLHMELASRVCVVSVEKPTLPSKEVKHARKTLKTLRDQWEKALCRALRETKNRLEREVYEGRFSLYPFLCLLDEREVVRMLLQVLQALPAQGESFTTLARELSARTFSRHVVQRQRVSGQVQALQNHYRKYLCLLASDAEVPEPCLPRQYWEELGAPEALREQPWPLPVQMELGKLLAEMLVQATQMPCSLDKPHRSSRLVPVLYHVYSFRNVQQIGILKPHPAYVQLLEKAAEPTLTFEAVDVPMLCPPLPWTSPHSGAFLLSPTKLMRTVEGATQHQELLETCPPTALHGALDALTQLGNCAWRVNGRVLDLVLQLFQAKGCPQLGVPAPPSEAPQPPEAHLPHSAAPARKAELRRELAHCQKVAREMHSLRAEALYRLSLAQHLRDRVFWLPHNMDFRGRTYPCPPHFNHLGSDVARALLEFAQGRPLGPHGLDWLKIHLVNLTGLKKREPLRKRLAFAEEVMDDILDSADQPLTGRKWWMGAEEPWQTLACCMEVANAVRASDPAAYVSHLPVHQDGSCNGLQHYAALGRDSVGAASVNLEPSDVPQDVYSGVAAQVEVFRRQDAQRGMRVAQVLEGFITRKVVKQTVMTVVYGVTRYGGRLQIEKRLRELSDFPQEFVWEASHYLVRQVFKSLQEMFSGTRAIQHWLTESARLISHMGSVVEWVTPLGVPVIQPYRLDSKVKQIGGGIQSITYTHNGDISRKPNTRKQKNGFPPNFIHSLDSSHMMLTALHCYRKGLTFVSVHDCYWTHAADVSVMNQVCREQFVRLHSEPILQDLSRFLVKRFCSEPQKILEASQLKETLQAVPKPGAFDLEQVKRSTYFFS
smiles,measurement,setting,value
C[C@@]1(O)[C@H](O)[C@@H](COP(=O)(O)OP(=O)(O)OP(=O)(O)O)O[C@H]1n1cnc2c(=O)[nH]c(N)nc21 [2′-C-methyl GTP],Kpol,[1]; [10],0.051 s⁻¹
C[C@@]1(F)[C@H](O)C(CO[P@@](=O)(O)OP(=O)(O)OP(=O)(O)O)O[C@H]1n1ccc(=O)[nH]c1=O (stereo partly drawn) [2′-deoxy-2′-F-2′-C-methyl UTP],Kpol,[1]; [10],0.00034 s⁻¹
"CNc1nc(N)nc2c1ncn2[C@@H]1O[C@H](CO[P@@](=O)(N[C@@H](C)C(=O)OC(C)C)Oc2ccccc2)[C@@H](O)[C@@]1(C)F [Sample 1-1, isopropyl((S)-(((2R,3R,4R,5R)-5-(2-amino-6-(methylamino)-9H-purin-9-yl)-4-fluoro-3-hydroxy-4-methyltetrahydrofuran-2-yl)methoxy)(phenoxy)phosphoryl)-L-alaninate]",HPLC,[2]; 0 days at 25° C./60% RH,98.6
same,Observation,[2]; 0 days at 25° C./60% RH,White solid
same,HPLC,[2]; 7 days at 25° C./60% RH,98.7
same,Observation,[2]; 7 days at 25° C./60% RH,White solid
same,Stability on storage,[2],stable
same,HPLC,[2]; 14 days at 25° C./60% RH,98.5
same,Observation,[2]; 14 days at 25° C./60% RH,White solid
"CNc1nc(N)nc2c1ncn2[C@@H]1O[C@H](CO[P@@](=O)(N[C@@H](C)C(=O)OC(C)C)Oc2ccccc2)[C@@H](O)[C@@]1(C)F [Sample 1-2, isopropyl((S)-(((2R,3R,4R,5R)-5-(2-amino-6-(methylamino)-9H-purin-9-yl)-4-fluoro-3-hydroxy-4-methyltetrahydrofuran-2-yl)methoxy)(phenoxy)phosphoryl)-L-alaninate]",HPLC,[2]; 0 days at 25° C./60% RH,99.1
same,Observation,[2]; 0 days at 25° C./60% RH,White solid
same,HPLC,[2]; 7 days at 25° C./60% RH,99.2
same,Observation,[2]; 7 days at 25° C./60% RH,White solid
same,Stability on storage,[2],stable
same,HPLC,[2]; 14 days at 25° C./60% RH,99.0
same,Observation,[2]; 14 days at 25° C./60% RH,White solid
CNc1nc(N)nc2c1ncn2[C@@H]1O[C@H](CO[P@@](=O)(N[C@@H](C)C(=O)OC(C)C)Oc2ccccc2)[C@@H](O)[C@@]1(C)F [Sample 1-3],HPLC,[2]; 0 days at 25° C./60% RH,99.7
same,Observation,[2]; 0 days at 25° C./60% RH,White solid
same,HPLC,[2]; 7 days at 25° C./60% RH,99.6
same,Observation,[2]; 7 days at 25° C./60% RH,White solid
same,HPLC,[2]; 14 days at 25° C./60% RH,99.4
same,Observation,[2]; 14 days at 25° C./60% RH,White solid
CNc1nc(N)nc2c1ncn2[C@@H]1O[C@H](CO[P@@](=O)(N[C@@H](C)C(=O)OC(C)C)Oc2ccccc2)[C@@H](O)[C@@]1(C)F [Sample 1-9],HPLC,[2]; 0 days at 25° C./60% RH,98.7
same,Observation,[2]; 0 days at 25° C./60% RH,White solid
same,HPLC,[2]; 7 days at 25° C./60% RH,98.1
same,Observation,[2]; 7 days at 25° C./60% RH,White solid
same,Stability on storage,[2],physically and chemically stable
same,HPLC,[2]; 14 days at 25° C./60% RH,96.4
same,Observation,[2]; 14 days at 25° C./60% RH,White solid
C[C@@]1(F)[C@H](O)[C@@H](COP(=O)(O)OP(=O)(O)OP(=O)(O)O)O[C@H]1n1cnc2c(=O)[nH]c(N)nc21 [metabolite 1-6],incorporation by human mitochondrial RNA polymerase,[1],poorly incorporated
same,Relative Efficiency,"[1]; (Kpol/Kd, app)analog nucleotide/(Kpol/Kd, app)natural nucleotide",2.2 × 10^−6
same,Kpol,[1]; [10],0.0017 s⁻¹
same,"Kpol/Kd, app",[1]; [10],8.3 M⁻¹ s⁻¹
same,Kd,"[1]; incorporation by human mitochondrial RNA polymerase, read-out: Kd, app",204 µM
"C[C@@]1(F)[C@H](O)[C@@H](CO)O[C@H]1n1cnc2c(=O)[nH]c(N)nc21 [metabolite 1-7, 2-amino-9-((2R,3R,4R,5R)-3-fluoro-4-hydroxy-5-(hydroxymethyl)-3-methyltetrahydrofuran-2-yl)-1,9-dihydro-6H-purin-6-one]",Tmax,[3],6.0 (4.0-8.0) h
same,AUC0-last,[4]; [11],1620 ng·h/mL
same,Cmax,[4]; [11],42.5 ng/mL
same,T1/2,[4]; [11],11.5 h
same,Tmax,[4]; [11],12 to 24 h
same,AUC0-last,[4]; [12],3030 ng·h/mL
same,Cmax,[4]; [12],131 ng/mL
same,T1/2,[4]; [12],15.0 h
same,Tmax,[4]; [12],4 h
same,AUC0-last,[4]; [13],3660 ng·h/mL
same,Cmax,[4]; [13],93.6 ng/mL
same,T1/2,[4]; [13],18.8 h
same,Tmax,[4]; [13],4 to 24 h
same,Tmax,GT1 HCV [5],4.0 (3.0-6.0) h
same,AUC0-last,[6],9640 ng·h/mL
same,Cmax,[6],541 ng/mL
same,T1/2,[6],15.3 h
same,Tmax,[6],6 to 8 h
same,subjects achieving HCV RNA <LOQ,"GT1 HCV [7]; 600 mg QD, non-cirrhotic GT1b, LOQ=15 IU/mL",50%
same,time of peak formation after dosing,GT1 HCV [7]; Part C,approximately 6 hours
same,T1/2 SS,"[8]; Part E, 600 mg/d (n=6), steady state",24.4 ± 9.81 h
same,AUC,"[8]; 150 mg/d, AUC Day 1 (AUC, for Metabolite 1-7), 150 mg/d (n=6), Day 1",800 ± 213 ng·h/mL
same,AUC,"[8]; 150 mg/d, AUC SS (AUC, for Metabolite 1-7), 150 mg/d (n=6), steady state",962 ± 409 ng·h/mL
same,AUC,"[8]; 300 mg/d, AUC Day 1 (AUC, for Metabolite 1-7), 300 mg/d (n=6), Day 1",1410 ± 220 ng·h/mL
same,AUC,"[8]; 300 mg/d, AUC SS (AUC, for Metabolite 1-7), 300 mg/d (n=6), steady state",1830 ± 453 ng·h/mL
same,food effect on total and trough exposure,[8]; in vivo,No food effect
same,subjects achieving HCV RNA below the lower limit of quantitation,"GT1, GT2, or GT3 HCV; 600 mg QD, Part E",17%
same,day on which steady state of concentrations was reached,"GT1, GT2, or GT3 HCV; subjects with cirrhosis",5 days
same,subjects achieving HCV RNA below the lower limit of quantitation,GT3 HCV,17%
CC(C)OC(=O)[C@H](C)N[P@](=O)(OC[C@H]1O[C@@H](n2ccc(=O)[nH]c2=O)[C@](C)(F)[C@@H]1O)Oc1ccccc1 [sofosbuvir],EC95,[9],greater than 100 ng/mL
same,HCV RNA reduction,"HCV; after 1 day of 400 mg monotherapy, GT1a HCV-infected subjects",−2 log 10 IU/mL
same,steady-state trough concentration,HCV; similar dosage form (400 mg QD),approximately 100 ng/mL
